# Tested on: lymphocytes
# Experiment: Mixed Lymphocyte Reaction (MLR) II (Example B)
# Assay type: cell-based
# Conditions: concentration of compound required to inhibit the proliferation of lymphocytes by 50%, cells from two responding donors, 96 hours incubation, ³H-thymidine for the final 24 hours, read-out: IC₅₀
# Experimental: Mixed Lymphoctye Reaction (MLR) II
# The MLR test was performed in 96-well microtitre plates with each well containing 3 x 10⁵ cells from each of two responding donors in a final volume of 0.2ml RPMI 1640 medium supplemented with 10% human serum, L-glutamine and penicillin/streptomycin. The compound under test was dissolved at 10mg/ml in ethanol and further diluted in RPMI 1640. The cells were incubated at 37 °C in a humidified atmosphere of 5% carbon dioxide for 96 hours. ³H-thymidine (0.5uCi) was added for the final 24 hours of the incubation to provide a measure of proliferation.
# A selection of compounds were tested according to Example B. The concentration of compound required to inhibit the proliferation of lymphocytes by 50% was measured, and the results were as follows: […]
row,Structure (SMILES),IC50 [µM]
1,"COC1CC(C=C(C)C2OC(=O)C3CCCCN3C(=O)C(=O)C3(O)OC(C(OC)CC(C)CC(C)=CC4=C(CC(O)C2C)OC(C[Se]c2ccccc2)C4)C(OC)CC3C)CCC1O (stereo not drawn) [Example 32, 1,14-Dihydroxy-12-[2-(4-hydroxy-3-methoxycyclohexyl)-1-methylvinyl]-26,28-dimethoxy-18-[(phenylseleno)methyl]-13, 22,24,30-tetramethyl-11,17,31-trioxa-4-azatetracyclo[25.3.1. 0.^4,90.^16,20]hentriaconta-16(20),21-diene-2,3,10-trione.]",< 1
2,"C=CCC1C=C(C)CC(C)CC(OC)C2OC(O)(C(C)CC2OC)C2(CO2)C(=O)N2CCCCC2C(=O)OC(C(C)=CC2CCC(O)C(OC)C2)C(C)C(O)CC1=O (stereo not drawn) [Example 30, 17-Allyl-1,14-dihydroxy-12-[2-(4-hydroxy-3-methoxycyclohexyl)-1-methylvinyl]-23,25-dimethoxy-13,19,21, 27-tetramethyl-11,28-dioxa-4-aza-spiro[tricyclo [22.3.1.0^4,9]octacos-18-ene-2,2'-oxirane]-3,10,16-trione.]",< 1
3,C=CCC1C=C(C)CC(C)CC(OC)C2OC(O)(C(=O)C(=O)N3CCCCC3C(=O)OC(C(C)=CC3CCC(OCOCCOC)C(OC)C3)C(C)C(O)CC1=O)C(C)CC2OC (stereo not drawn) [Example 27],< 1
4,"C=CCC1C=C(C)CC(C)CC(OC)C2OC(O)(C(=O)C(=O)N3CCCCC3C(=O)OC(C(C)=CC3CCC(O)C(OC)C3)C(C)CCC1=O)C(C)CC2OC (stereo not drawn) [Example 17, 17-Allyl-l-hydroxy-12-[2-(4-hydroxy-3-methoxycyclohexyl)-1-methylvinyl]-23,25-dimethoxy-13,19,21,27-tetramethyl-11,28-dioxa-4-azatricyclo[22.3.1.0^4,9]octacos-18-ene-2,3,10,16-tetraone]",< 1
5,"CCCC1C=C(C)CC(C)CC(OC)C2OC(O)(C(=O)C(=O)N3CCCCC3C(=O)OC(C(C)=CC3CCC(O)C(OC)C3)C(C)CCC1=O)C(C)CC2OC (stereo not drawn) [Example 12, 17-Propyl-1-hydroxy-12-[2-(4-hydroxy-3-methoxycyclohexyl)-1-methylvinyl]-23,25-dimethoxy-13,19,21,27-tetra methyl-11,28-dioxa-4-azatricyclo[22.3.1.0^4,9]octacos-18-ene-2,3,10,16-tetraone]",< 1
6,"C=CCC1C=C(C)CC(C)CC(OC)C2OC(O)(C(C)CC2OC)C(O)C(=O)N2CCCCC2C(=O)OC(C(C)=CC2CCC(O)C(OC)C2)C(C)CCC1=O (stereo not drawn) [Example 15, 17-Allyl-1,2-dihydroxy-12-[2-(4-hydroxy-3-methoxy-cyclohexyl)-1-methylvinyl]-23,25-dimethoxy-13,19,21,27-tetra methyl-11,28-dioxa-4-azatricyclo-[22.3.1.0^4,9]octacos-18-ene-3,10,16-trione]",< 1
7,"C=CCC1C=C(C)CC(C)CC(OC)C2OC(O)(C(=O)C(=O)N3CCCCC3C(=O)OC(C(C)=CC3CCC(OC)C(OC)C3)C(C)C(O)CC1=O)C(C)CC2OC (stereo not drawn) [Example 2, 17-Allyl-1,14-dihydroxy-12-[2-(3,4-dimethoxycyclohexyl) -1-methylvinyl]-23,25-dimethoxy-13,19,21,27-tetramethyl-11, 28-dioxa-4-azatricyclo[22.3.1.0^4,9]octacos-18-ene-2,3,10, 16-tetraone]",< 1
8,"C=CCC1C=C(C)CC(C)CC(OC)C2OC(O)(C(C)CC2OC)C(O)C(=O)N2CCCCC2C(=O)OC(C(C)=CC2CCC(O)C(OC)C2)C(C)C(O)CC1O (stereo not drawn) [Example 6, 17-Allyl-1,2,14,16-tetrahydroxy-12-[2-(4-hydroxy-3-methoxycyclohexyl)-1-methylvinyl]-23,25-dimethoxy-13,19,21, 27-tetramethyl-11,28-dioxa-4-azatricyclo[22.3.1.0^4,9] octacos-18-ene-3,10-dione]",< 1
9,"C=CCC1C=C(C)CC(C)CC(OC)C2OC(O)(C(=O)C(=O)N3CCCCC3C(=O)OC(C(C)=CC3CCC(OC)C(OC)C3)C(C)C(OC)CC1=O)C(C)CC2OC (stereo not drawn) [Example 1, 17-Allyl-1-hydroxy-12-[2-(3,4-dimethoxycyclohexyl)-1-methylvinyl]-14,23,25-trimethoxy-13,19,21,27-tetramethyl-11,28-dioxa-4-azatricyclo[22.3.1.0^4,9]octacos-18-ene-2,3,10,16-tetraone.]",< 1
10,"COC1CC(C=C(C)C2OC(=O)C3CCCCN3C(=O)C(=O)C3(O)OC(C(OC)CC(C)CC(C)=Cc4ccn(CCO)c4CC(O)C2C)C(OC)CC3C)CCC1O (stereo not drawn) [Example 22, 1,14-Dihydroxy-12-[2-(4-hydroxy-3-methoxycyclohexyl)-1-methylvinyl]-26,28-dimethoxy-17-(2-hydroxyethyl)-13,22,24,30-tetramethyl-11,31-dioxa-4,17-diazatetracyclo[25.3.1.0.^4,9 .0^16,20]hentriaconta-16(20),18,21-triene-2,3,10-trione.]",< 1
11,"CCCC1C=C(C)CC(C)CC(OC)C2OC(O)(C(=O)C(=O)N3CCCCC3C(=O)OC(C(C)=CC3CCC(=O)C(OC)C3)C(C)CCC1=O)C(C)CC2OC (stereo not drawn) [Example 18, 17-Propyl-1-hydroxy-12-[2-(3-methoxy-4-oxocyclohexyl)-1-methylvinyl]-23,25-dimethoxy-13,19,21,27-tetramethyl-11,28-dioxa-4-azatricyclo[22.3.1.0^4,9]octacos-18-ene-2,3,10,16-tetraone.]",< 1
12,"C=CCC1C=C(C)CC(C)CC(OC)C2OC(O)(C(C)CC2OC)C(O)C(=O)N2CCCCC2C(=O)OC(C(C)=CC2CCC(O)C(OC)C2)C(C)C(O)CC1=O (stereo not drawn) [Example 5, 17-Allyl-1,2,14-trihydroxy-12-[2-(4-hydroxy-3-methoxycyclohexyl)-1-methylvinyl]-23,25-dimethoxy-13,19,21,27-tetra methyl-11,28-dioxa-4-azatricyclo[22.3.1.0^4,9]octacos-18-ene-3,10,16-trione]",< 1
